One assay deals with H1299 cells. The experiment in a line: Cell proliferation PAD assay, H1299. The settings on record: Homo sapiens, NCI-H1299, 3pt, 48 hours, read-out: H1299 3pt. It counts as cell-based. On the procedure: (§1) Cell lines used are available from American Type Culture Collection (ATCC), for example, cell cultures containing A549 (ATCC# CCL-185), HeLa (ATCC# CCL-2), HCT116 ATTC# CCL-247), and H1299 (ATCC# CRL-5803) cells were maintained in T175 flasks following the ATCC recommended media and handling procedures. […] A 20,000 cells/ml solution was made for plating. Cells were plated in black Packard 96 well plates by placing 100 μl per well (2,000 cells per well). […] The definitions of the cell types used are as follows: A549 is lung carcinoma; HI 299 is non-small cell lung carcinoma; HI 155 is non-small cell lung carcinoma; AsPC-1 is pancreatic adenocarcinoma; Caov-3 is ovarian adenocarcinoma; COLO 205 is colorectal adenocarcinoma; DLD-1 colorectal adenocarcinoma; HCT116 is colorectal carcinoma; DU 145 is prostate carcinoma; ES-2 is ovarian clear cell carcinoma; H460 is large cell lung carcinoma; HELA is cervical adenocarcinoma; MIA PaCa-2 is pancreatice carcinoma; OVCAR-3 is ovarian adenocarcinoma; OVCAR8 is ovarian carcinoma; PC3 is prostate adenocarcinoma; SK-OV-3 is ovarian adenocarcinoma; SU86.86 is pancreatic carcinoma; TOV-21G is avarian clear cell carcinoma; U2OS is bone osteosarcoma; is ASPC-I is pancreatic adenocarcinoma; BXPC-3 is pabcreatic adenocarcinoma; HL60 is promyeloblast promyelocytic leukemia; K562 is bone marrow chronic myelogenous leukemia; L1210 is mouse lymphocytic leukemia; MOLT3 is T lymphoblast acute lymphoblastic leukemia; MOLT4 is T lymphoblast acute lymphoblastic leukemia; SW620 is colorectal adenocarcinoma; THP-1 is monocyte acute monocytic leukemia; U937 is histiocytic lymphoma; and UACC-257 is melanoma.
(§2) Compounds and additional media were added 24 hours after cell plating. […] All compound testing was done in duplicate using 6.3 fold dilutions starting with 10 mM. […] Taxol and at least one additional control were run on all plates. Three microliters of the compound master plate were added to deep well blocks containing 750 μl of RPMI media. One hundred microliters were transferred from the compound/media deep well blocks to the plated cells resulting in a 500 fold dilution of the compounds. Cells were grown at 37° C., 5% CO2 for 48 hours.
(§3) Cells to be analyzed by photography were fixed and stained. One hundred microliters of media were removed and 100 μl of 9.3% formamide was added to each well. Plates were left on the benchtop for 45 minutes. A staining solution containing 1.55 μl of 1 mg/ml DAPI added to 18.75 ml PBS was warmed for 15 minutes at 37° C. The cells were aspirated prior to washing with 100 μl of PBS. Seventy microliters of PBS were aspirated and 170 μl of the DAPI solution were added to each well of fixed cells. Plates were left at room temperature for one hour then aspirated and washed twice with 100 μl of PBS. The stained cells were left at 4° C. for a minimum of 16 hours before photographic analysis with Array Scan II (Cellomics). Analysis of the photographic images to determine numbers of live cells (proliferation), apoptotic cells and dead cells, were according to the methods described in U.S. Utility patent application Ser. No. 10/652,440, which incorporated herein in its entirety.

Another assay has as its system A549 cells. The experiment in a line: Cell proliferation PAD assay, A549. In kind it is cell-based. As to conditions: Homo sapiens, 3pt, 48 hours, read-out: A549 3pt. On the procedure:
as §1, §2, §3

We go through 32 molecules from patent US20050282818A1, “Ubiquitin ligase inhibitors” (Rigel Pharmaceuticals, Inc., priority 2004, published 2005).

A value given as a limit tells only on which side of the number the result lay.

Consider `COc1ccc(NS(=O)(=O)c2cccc3nonc23)cc1` [compound 51, N-(4-methoxyphenyl)-2,1,3-benzoxadiazole-4-sulfonamide], for which the IC50 in the assay on H1299 cells and in the assay on A549 cells was at least 20 µM in each case.

For the molecule `O=S(=O)(Nc1cc(Cl)cc(Cl)c1)c1cccc2nonc12` [compound 52, N-(3,5-dichlorophenyl)-2,1,3-benzoxadiazole-4-sulfonamide], the IC50 in the assay on H1299 cells and in the assay on A549 cells was at least 20 µM in each case.

`O=S(=O)(NCC1CCCCC1)c1cccc2nonc12` [compound 53, N-(cyclohexylmethyl)-2,1,3-benzoxadiazole-4-sulfonamide]: the IC50 in the assay with H1299 cells and in the assay on A549 cells was at least 20 µM throughout.

`Cc1ccc(NS(=O)(=O)c2cccc3nonc23)c(Cl)c1` [compound 54, N-(2-chloro-4-methylphenyl)-2,1,3-benzoxadiazole-4-sulfonamide]: the IC50 with H1299 cells and in the assay on A549 cells was at least 20 µM throughout.

Turning to `O=S(=O)(NCCN1CCCC1)c1cccc2nonc12` [compound 55, N-(2-pyrrolidin-1-ylethyl)-2,1,3-benzoxadiazole-4-sulfonamide], the IC50 with H1299 cells and in the assay on A549 cells was at least 20 µM in each case.

With `Cc1ccc(Cl)cc1NS(=O)(=O)c1cccc2nonc12` [compound 56, N-(5-chloro-2-methylphenyl)-2,1,3-benzoxadiazole-4-sulfonamide], the IC50 with H1299 cells and in the assay with A549 cells was at least 20 µM each time.

For `O=S(=O)(Nc1ccccc1I)c1cccc2nonc12` [compound 57, N-(2-iodophenyl)-2,1,3-benzoxadiazole-4-sulfonamide], the IC50 in the assay on H1299 cells and in the assay with A549 cells was at least 20 µM each time.

With `O=S(=O)(Nc1ccccn1)c1cccc2nonc12` [compound 58, N-pyridin-2-yl-2,1,3-benzoxadiazole-4-sulfonamide], the IC50 in the assay with H1299 cells and with A549 cells was at least 20 µM throughout.

Take `O=S(=O)(NCCF)c1cccc2nonc12` [compound 59, N-(2-fluoroethyl)-2,1,3-benzoxadiazole-4-sulfonamide]: the IC50 in the assay with H1299 cells and in the assay with A549 cells was at least 20 µM throughout.

With `O=S(=O)(Nc1cc(Cl)ccc1Cl)c1cccc2nonc12` [compound 60, N-(2,5-dichlorophenyl)-2,1,3-benzoxadiazole-4-sulfonamide], the IC50 with H1299 cells and with A549 cells was at least 20 µM throughout.

For the molecule `COC(=O)c1ccc(C(=O)OC)c(NS(=O)(=O)c2cccc3nonc23)c1` [compound 63, dimethyl 2-[(2,1,3-benzoxadiazol-4-ylsulfonyl)amino]terephthalate], the IC50 in the assay on H1299 cells and with A549 cells was at least 20 µM throughout.

Consider `O=[N+]([O-])c1ccc(NS(=O)(=O)c2cccc3nonc23)cc1` [compound 65, N-(4-nitrophenyl)-2,1,3-benzoxadiazole-4-sulfonamide], for which the IC50 in the assay on H1299 cells and in the assay on A549 cells was at least 20 µM in each case.

As for `O=S(=O)(Nc1ccc(N2CCOCC2)c(Cl)c1)c1cccc2nonc12` [compound 66, N-(3-chloro-4-morpholin-4-ylphenyl)-2,1,3-benzoxadiazole-4-sulfonamide], the IC50 in the assay on H1299 cells and in the assay with A549 cells was at least 20 µM throughout.

With `O=S(=O)(Nc1ccccc1OC(F)(F)F)c1cccc2nonc12` [compound 67, N[2-(trifluoromethoxy)phenyl]2,1,3-benzoxadiazole-4-sulfonamide], the IC50 in the assay on H1299 cells and in the assay with A549 cells was at least 20 µM in each case.

As for `O=S(=O)(Nc1ccncc1)c1cccc2nonc12` [compound 68, N-pyridin-4-yl-2,1,3-benzoxadiazole-4-sulfonamide], the IC50 in the assay on H1299 cells and in the assay on A549 cells was at least 20 µM throughout.

Consider `O=S(=O)(Nc1cccc2nsnc12)c1cc(F)c(F)c(F)c1` [compound 71, N-2,1,3-benzothiadiazol-4-yl-3,4,5-trifluorobenzenesulfonamide], for which the IC50 was at least 20 µM in the assay with H1299 cells and 1 to 20 µM in the assay with A549 cells.

Consider `CCOC(=O)c1cccc(NS(=O)(=O)c2cccc3nonc23)c1` [compound 74, ethyl 3-[(2,1,3-benzoxadiazol-4-ylsulfonyl)amino]benzoate], for which the IC50 in the assay on H1299 cells and in the assay with A549 cells was at least 20 µM in each case.

With `O=S(=O)(Nc1cccc2nsnc12)c1ccc(F)c(Cl)c1` [compound 76, N-2,1,3-benzothiadiazol-4-yl-3-chloro-4-fluorobenzenesulfonamide], the IC50 with H1299 cells and in the assay with A549 cells was at least 20 µM each time.

Take `O=S(=O)(Nc1cccc2nsnc12)c1ccc(F)cc1Br` [compound 77, N-2,1,3-benzothiadiazol-4-yl-2-bromo-4-fluorobenzenesulfonamide]: the IC50 with H1299 cells and with A549 cells was at least 20 µM throughout.

Take `O=S(=O)(Nc1cccc2nsnc12)c1cc(Cl)c(O)c(Cl)c1` [compound 96, N-2,1,3-benzothiadiazol-4-yl-3,5-dichloro-4-hydroxybenzenesulfonamide]: the IC50 in the assay with H1299 cells and in the assay with A549 cells was at least 20 µM throughout.

As for `O=S(=O)(Nc1cccc2nsnc12)c1cccc(Br)c1` [compound 97, N-2,1,3-benzothiadiazol-4-yl-3-bromoberizenesulfonamide], the IC50 in the assay on H1299 cells and in the assay with A549 cells was at least 20 µM throughout.

`O=S(=O)(Nc1cccc2nsnc12)c1ccc(CBr)cc1` [compound 98, N-2,1,3-benzothiadiazol-4-yl-4-(bromomethyl)benzenesulfonamide]: the IC50 with H1299 cells and in the assay on A549 cells was at least 20 µM in each case.

Turning to `N#Cc1ccccc1S(=O)(=O)Nc1cccc2nsnc12` [compound 100, N-2,1,3-benzothiadiazol-4-yl-2-cyanobenzenesulfonamide], the IC50 with H1299 cells and in the assay with A549 cells was at least 20 µM in each case.

Turning to `N#Cc1cccnc1N1CCN(S(=O)(=O)c2cccc3nonc23)CC1` [compound 119, 2-[4-(2,1,3-benzoxadiazol-4-ylsulfonyl)piperazin-1-yl]nicotinonitrile], the IC50 in the assay on H1299 cells and in the assay on A549 cells was at least 20 µM throughout.

Take `N#Cc1ccc(N2CCN(S(=O)(=O)c3cccc4nonc34)CC2)nc1` [compound 120, 6-[4-(2,1,3-benzoxadiazol-4-ylsulfonyl)piperazin-1-yl]nicotinonitrile]: the IC50 in the assay with H1299 cells and in the assay with A549 cells was at least 20 µM each time.

For `O=S(=O)(c1cccc2nonc12)N1CCN(c2ccccn2)CC1` [compound 123, 4-[(4-Pyridin-2-ylpiperazin-1-yl)-sulfonyl]-2,1,3-benzoxadiazole], the IC50 in the assay on H1299 cells and with A549 cells was at least 20 µM in each case.

Regarding `O=S(=O)(c1cccc2nonc12)N1CCN(c2cc(C(F)(F)F)ccn2)CC1` [compound 124, 4-({4-[4-(trifluoromethyl)pyridin-2-yl]piperazin-1-yl}sulfonyl)-2,1,3-benzoxadiazole], the IC50 in the assay on H1299 cells and with A549 cells was at least 20 µM throughout.

Take `O=S(=O)(c1cccc2nonc12)N1CCN(c2cccc(C(F)(F)F)c2)CC1` [compound 125, 4({4-[3-(trifluoromethyl)phenyl]piperazin-1-yl}sulfonyl)-2,1,3-benzoxadiazole]: the IC50 in the assay on H1299 cells and with A549 cells was at least 20 µM throughout.

Take `O=S(=O)(c1cccc2nonc12)N1CCN(c2ccncc2)CC1` [compound 126, 4-[(4-pyridin-4-ylpiperazin-1-yl)sulfonyl]-2,1,3-benzoxadiazole]: the IC50 in the assay on H1299 cells and with A549 cells was at least 20 µM each time.

On to `O=S(=O)(c1cccc2nonc12)N1CCN(CCN2CCOCC2)CC1` [compound 127], for which the IC50 in the assay on H1299 cells and in the assay on A549 cells was at least 20 µM in each case.

`CC(=O)N1CCN(S(=O)(=O)c2cccc3nonc23)CC1` [compound 128, 4-[(4-acetylpiperazin-1-yl)sulfonyl]-2,1,3-benzoxadiazole]: the IC50 with H1299 cells and with A549 cells was at least 20 µM in each case.

Turning to `O=C(CN1CCN(S(=O)(=O)c2cccc3nonc23)CC1)N1CCOCC1` [compound 129, 4-{[4-(2-morpholin-4-yl-2-oxoethyl)piperazin-1-yl]sulfonyl}-2,1,3-benzoxadiazole], the IC50 in the assay on H1299 cells and with A549 cells was at least 20 µM in each case.
